Measurements from publication PMC6271239, “Synthesis and in Vitro Evaluation of New Nitro-Substituted Thiazolyl Hydrazone Derivatives as Anticandidal and Anticancer Agents” (Molecules, 2014).
≈ marks a conversion by molar mass, not a printed value.

Experiments:
[1] = tested on: MCF-7 human breast adenocarcinoma cell line; assay: MTT cytotoxicity assay; type: cell-based; settings: 3.9–500 µg/mL; for IC50: Homo sapiens, MCF7, 24 h incubation
Procedure: (§1) The tetrazolium salt, MTT (3-(4,5-dimethylthiazol-2-yl)-2,5-diphenyltetrazolium bromide), is used to measure the metabolic activity of viable cells. Tetrazolium salts are reduced to formazan by mitochondrial succinate dehydrogenase, an enzyme which is only active in cells with an intact metabolism. The formazan can be quantified photometrically and it is in correlation with the number of viable cells. Cytotoxicity was tested using the MCF-7 human breast adenocarcinoma cell line and NIH/3T3 mouse embryonic fibroblast cell line. NIH/3T3 and MCF-7 cells were incubated in RPMI medium (Hyclone, Thermo Scientific, Logan, UT, USA) supplemented with fetal calf serum (Hyclone), 100 IU/mL penicillin and […] (Hyclone) at 37 °C in a humidified atmosphere of 95% air and 5% CO2. MCF-7 and NIH/3T3 cells were seeded at 10,000 cells into each well of 96-well plates. After 24 h of incubating period, the culture mediums were removed and compounds were added to culture medium at 3.9–500 µg/mL concentrations. After 24 h of incubation, cytotoxicity tests were performed using the MTT assay, which measures mitochondrial activity, in MCF-7 and NIH/3T3 cells. Firstly, 20 µL MTT solution (5 mg/mL MTT powder in PBS) was added to each well. After 3 h incubation period at 37 °C, 5% CO2, the contents of the wells were removed and 100 µL DMSO was added to each well. Then, OD of the plate was read at 570 nm. Inhibition% was calculated for each concentration of the compounds. IC50 values were estimated by non-linear regression analysis. Cisplatin was used as a positive control. Stock solutions of compounds were prepared in DMSO and further dilutions were made with fresh culture medium. All experiments were performed in duplicate.

[2] = tested on: NIH/3T3 mouse embryonic fibroblast cell line; assay: MTT cytotoxicity assay; type: cell-based; settings: 3.9–500 µg/mL; for IC50: Mus musculus, NIH3T3, 24 h incubation
Procedure: as §1

[3] = tested on: Candida albicans (ATCC 10231); assay: Anticandidal broth microdilution assay; type: cell-based; settings: ATCC10231, RPMI, 37 °C, 24 h
Procedure: (§2) Anticandidal activity assay was performed against Candida albicans (ATCC 10231), Candida utilis (NRRLY 900), Candida tropicalis (NRRLY 12968), Candida krusei (NRRLY 7179), Candida parapsilosis (NRRLY 12696) and Candida glabrata (ATCC 2001) standard strains according to the CSLI method.
(§3) The minimum inhibitory concentration (MIC, µg/mL) values against pathogenic Candida strains were determined by a broth microdilution method using a 96-well plate format. Compounds 1–14 and fluconazole as a standard control were first dissolved in dimethyl sulfoxide (DMSO) (25%) at an initial concentration of 2000 µg/mL.
(§4) All Candida strains were inoculated on Potato Dextrose Agar (PDA) prior the experiments at 37 °C. After the incubation, sufficiently grown microorganisms were inoculated in sterile saline (0.85%), and then standardized according to the turbidity to 5 × 10^3 CFU (McFarland No: 0.5) per well in RPMI medium under sterile conditions. Serial dilutions were prepared in 100 µL RPMI medium with an equal amount of the test samples, and 100 µL each microorganism suspension was pipetted into each well and incubated at 37 °C for 24 h. Positive growth controls (to assess the presence of turbidity) were performed in wells without the test samples, whereas the negative growth control (medium) was also evaluated. MIC was deﬁned as the lowest concentration without any visible growth of the yeast when compared with the growth in the control plate. All experiments were performed in duplicate.

[4] = tested on: Candida glabrata (ATCC 2001); assay: Anticandidal broth microdilution assay; type: cell-based; settings: Nakaseomyces glabratus, ATCC2001, RPMI, 37 °C, 24 h
Procedure: as §2, §3, §4

[5] = tested on: Candida krusei (NRRLY 7179); assay: Anticandidal broth microdilution assay; type: cell-based; settings: Pichia kudriavzevii, RPMI, 37 °C, 24 h
Procedure: as §2, §3, §4

[6] = tested on: Candida parapsilosis (NRRLY 12696); assay: Anticandidal broth microdilution assay; type: cell-based; settings: Lodderomyces parapsilosis, RPMI, 37 °C, 24 h
Procedure: as §2, §3, §4

[7] = tested on: Candida tropicalis (NRRLY 12968); assay: Anticandidal broth microdilution assay; type: cell-based; settings: RPMI, 37 °C, 24 h
Procedure: as §2, §3, §4

[8] = tested on: Candida utilis (NRRLY 900); assay: Anticandidal broth microdilution assay; type: cell-based; settings: Williopsis jadinii, RPMI, 37 °C, 24 h
Procedure: as §2, §3, §4

Row | SMILES | MIC [3] | MIC [4] | MIC [5] | MIC [6] | MIC [7] | MIC [8] | melting point | IC50 MCF-7 Cell Line ([1]; 24 h incubation) | IC50 NIH/3T3 Cell Line ([2]; 24 h incubation) | IC50 [1] | IC50 [2]
1 | N.N.[Cl][Pt][Cl] [Cisplatin, reference compound] | – | – | – | – | – | – | – | 31.2 µg/mL | 330.58 µg/mL | – | –
2 | O=[N+]([O-])c1ccc(-c2csc(NN=Cc3ccc(-c4ccc([N+](=O)[O-])cc4)o3)n2)cc1 [Compound 2, 4-(4-Nitrophenyl)-2-[2-((5-(4-nitrophenyl)furan-2-yl)methylene)hydrazinyl]thiazole] | 500 µg/mL (≈ 1150 µM) | 1000 µg/mL (≈ 2300 µM) | 500 µg/mL (≈ 1150 µM) | 500 µg/mL (≈ 1150 µM) | 500 µg/mL (≈ 1150 µM) | 500 µg/mL (≈ 1150 µM) | 252 to 254 °C | – | – | > 500 µg/mL | > 500 µg/mL
3 | O=[N+]([O-])c1ccc(-c2ccc(C=NNc3nc(-c4ccc(F)cc4)cs3)o2)cc1 [Compound 3, 4-(4-Fluorophenyl)-2-[2-((5-(4-nitrophenyl)furan-2-yl)methylene)hydrazinyl]thiazole] | 500 µg/mL (≈ 1220 µM) | 1000 µg/mL (≈ 2450 µM) | 500 µg/mL (≈ 1220 µM) | 500 µg/mL (≈ 1220 µM) | 500 µg/mL (≈ 1220 µM) | 500 µg/mL (≈ 1220 µM) | 241 to 242 °C | – | – | 500 µg/mL (≈ 1220 µM) | 250 µg/mL (≈ 612 µM)
4 | COc1ccc(-c2csc(NN=Cc3ccc(-c4ccc([N+](=O)[O-])cc4)o3)n2)cc1 [Compound 7, 4-(4-Methoxyphenyl)-2-[2-((5-(4-nitrophenyl)furan-2-yl)methylene)hydrazinyl]thiazole] | 500 µg/mL (≈ 1190 µM) | 1000 µg/mL (≈ 2380 µM) | 500 µg/mL (≈ 1190 µM) | 500 µg/mL (≈ 1190 µM) | 500 µg/mL (≈ 1190 µM) | 500 µg/mL (≈ 1190 µM) | 232 to 233 °C | – | – | > 500 µg/mL | > 500 µg/mL

Continued, in another order:

Row | MIC [3] | MIC [4] | MIC [5] | MIC [6] | MIC [7] | MIC [8] | melting point | SMILES | IC50 MCF-7 Cell Line ([1]; 24 h incubation) | IC50 NIH/3T3 Cell Line ([2]; 24 h incubation) | IC50 [1] | IC50 [2]
5 | 500 µg/mL (≈ 1280 µM) | 1000 µg/mL (≈ 2560 µM) | 500 µg/mL (≈ 1280 µM) | 500 µg/mL (≈ 1280 µM) | 1000 µg/mL (≈ 2560 µM) | 500 µg/mL (≈ 1280 µM) | 213 to 214 °C | O=[N+]([O-])c1ccc(-c2ccc(C=NNc3nc(-c4ccccc4)cs3)o2)cc1 [Compound 1, 2-[2-((5-(4-Nitrophenyl)furan-2-yl)methylene)hydrazinyl]-4-phenylthiazole] | – | – | > 500 µg/mL | > 500 µg/mL
6 | 500 µg/mL (≈ 1180 µM) | 500 µg/mL (≈ 1180 µM) | 500 µg/mL (≈ 1180 µM) | 1000 µg/mL (≈ 2350 µM) | 500 µg/mL (≈ 1180 µM) | 500 µg/mL (≈ 1180 µM) | 229 to 231 °C | O=[N+]([O-])c1ccc(-c2ccc(C=NNc3nc(-c4ccc(Cl)cc4)cs3)o2)cc1 [Compound 4, 4-(4-Chlorophenyl)-2-[2-((5-(4-nitrophenyl)furan-2-yl)methylene)hydrazinyl]thiazole] | – | – | > 500 µg/mL | > 500 µg/mL
7 | 500 µg/mL (≈ 1070 µM) | 1000 µg/mL (≈ 2130 µM) | 1000 µg/mL (≈ 2130 µM) | 500 µg/mL (≈ 1070 µM) | 500 µg/mL (≈ 1070 µM) | 500 µg/mL (≈ 1070 µM) | 243 to 244 °C | O=[N+]([O-])c1ccc(-c2ccc(C=NNc3nc(-c4ccc(Br)cc4)cs3)o2)cc1 [Compound 5, 4-(4-Bromophenyl)-2-[2-((5-(4-nitrophenyl)furan-2-yl)methylene)hydrazinyl]thiazole] | – | – | > 500 µg/mL | > 500 µg/mL
8 | 500 µg/mL (≈ 1240 µM) | 500 µg/mL (≈ 1240 µM) | 1000 µg/mL (≈ 2470 µM) | 500 µg/mL (≈ 1240 µM) | 1000 µg/mL (≈ 2470 µM) | 500 µg/mL (≈ 1240 µM) | 236 to 237 °C | Cc1ccc(-c2csc(NN=Cc3ccc(-c4ccc([N+](=O)[O-])cc4)o3)n2)cc1 [Compound 6, 2-[2-((5-(4-Nitrophenyl)furan-2-yl)methylene)hydrazinyl]-4-(p-tolyl)thiazole] | – | – | > 500 µg/mL | > 500 µg/mL
